{"source": "patent US20250034191A1", "about": "“LIGININ FLOWER PRODUCTION AND USES THEREOF” (SILICYCLE INC., priority 2021, published 2025)", "key": {"[1]": {"test_system": "S. typhimurium TA 98", "experiment": "Ames test (OECD 471), plate incorporation assay", "type": "cell-based, Salmonella typhimurium", "settings": "TA 98 with S9, positive control, 3.0 μg/plate (Table 3)", "description": "The purpose of the test is to investigate the possible genotoxic activity exerted by the tested substance in bacterial strains of Salmonella typhimurium, with and without metabolic activation with S9.\nThe Ames test allows for detecting the induction of point mutations in nucleotide bases, such as deletions, insertions, transversions and frameshift mutations by using modified Salmonella typhimurium strains. These strains carry a defective gene in the histidine operon making them auxotroph for this amino acid (mutants His-which require histidine in the culture medium for growth). The method guiding principle is based on the reverse mutation phenomenon by which bacteria exposed to a mutagenic substance may change back and become again prototroph concerning histidine (His+). The bacterial cells in growth phase are exposed to different concentrations of the test agent and mutagenic activity is determined by the capability of the test substance to induce a significant increase in the number of revertant (histidine-independent mutant, His+) in comparison to the spontaneous reversions occurring in the control cultures.\nSome chemical agents are not directly mutagen but become so by following transformation and metabolic activation occurring in the organism by liver enzyme activity. To study this genotoxic effect, rat liver microsomal fraction (S9) has been added. The employ of S9 allows identifying substances that act as indirect mutagen.\nIn this assay, 5 bacterial strains TA 1535, TA100, TA 102, TA 1537 and TA98 have been used and their characteristics are illustrated in Table 3. Each tester strains contains a different type of mutation in the histidine operon. TA 1535 and TA 100 strains are specific testers for mutagens causing base substitutions. The TA 102 strain is used to detect mutagens that require an intact excision repair system. […] Furthermore, the TA 102 strain contains the multicopy plasmid, pAQ1, which confers tetracycline resistance. The frameshift tester strains used are TA 1537 and TA 98. TA 98, like TA 100, is ampicillin resistant. All S. typhimurium strains carry, along with the defect in the histidine gene (His−), a deep rough (rfa) character, a mutation that causes partial loss of the lipopolysaccharide barrier that coats the surface of the bacteria and increases permeability to large molecules. […] For technical reason, the deletion excising the uvrB gene extends through the bio gene and, consequently, these bacteria also require biotin for growth.\nThe study was performed using the plate incorporation assay with and without S9 mix. S9 is composed by Aroclor 1254 induced rat liver supplemented with glucose-6-phosphate and NADP (Moltox®). The experiment was performed in duplicate Petri dishes containing basal medium and a further layer of medium containing histidine+biotin, the Salmonella typhimurium suspension, the sample to be tested at different concentrations and, if the case of metabolic activation, a 5% S9 mix. Dishes were incubated for 48 hours at 37° C. When the incubation time was over, a basal bacterial growth was achieved limited by the amount of histidine in the medium and in add the growth of revertant colonies (his+). In particular, the basic number of revertant colonies is steady, different for each strain, due to the spontaneous mutation rate of the bacterial strain. If an increase in the number of revertant colonies is observed, this is proportional to the tested sample concentration and to its mutagen capability. […]"}, "[2]": {"test_system": "NADPH-oxidase complex", "settings": "Zhang, Yi et al., American Journal of Hypertension, 2005; cited from earlier work"}, "[3]": {"test_system": "secreted IL6", "experiment": "Interleukin 6 (IL6) secretions in coculture", "type": "cell-based, human", "excerpt": "To assess the effect of the test element on inflammation, we assayed extracellular concentrations of secreted IL6. The results were normalized by the number of fibroblasts and represented as a percentage of the solvent condition DMSO (FIG. 13)."}, "[4]": {"test_system": "reconstructed artificial human skin model (normal human epidermal keratinocytes)", "experiment": "In vitro skin irritation, reconstructed human epidermis (OECD 439), MTT", "type": "cell-based", "settings": "42 h treatment, 42 hours incubation", "protocol": "The purpose of this test is to evaluate if the tested material is, or is not a skin irritant, according to the method described in OECD 439. This method uses the human artificial skin model (EPISKIN™, EpiDerm™, Episkin™ RHE) to assess the skin irritation of chemical substances, mixtures and to properly label them to this respect if applicable.\nThe test is based on the evaluation of cell survival after the exposure to the substance through MTT assay and by comparison with epidermis treated with phosphate buffer only (negative control). The MTT method is a colorimetric assay that allows to determine the percentage of cells alive within an in vitro cultured tissue. This assay is based on the ability of the mitochondrial succinate dehydrogenase enzyme to metabolize the nitro-blue tetrazolium salt, giving a colored compound that can be measured by spectrophotometer reading. […]\nEpidermis units are treated with 1 mg/ml MTT solution (3-[4,5-dimethylthiazol-2-yl]-2,5-diphenyl tetrazolium bromide) for 3 h at 37° C. […] 2 aliquots of every sample are transferred to a 96 well plate for the reading. The absorbance is read at the wavelength of 570 nm with a colorimeter (Tecan model Infinite 200 PRO) equipped with a microplate reader."}}, "note": "Values joined by “and” are separate entries in the source; they are usually repeats but may differ in a detail not shown here. Identical values can stand only once.", "data": [{"smiles": "Nc1ccc2cc3ccccc3cc2c1", "note": "[2AAn, 2-aminoanthracene]", "values": [{"measurement": "Statistically significant vs solvent control (p < 0.05)", "setting": "[1]", "result": "yes"}, {"measurement": "revertant, mean", "setting": "[1]", "result": 3320, "unit": "UFC/plate"}, {"measurement": "revertant, single replicates", "setting": "[1]", "result": "3353 UFC/plate and 3291 UFC/plate and 3316 UFC/plate"}]}, {"smiles": "COc1cc(C(C)=O)ccc1O", "note": "[Apocynin, apocynin]", "values": [{"measurement": "inhibition of the NADPH-oxidase complex", "setting": "[2]", "result": "effective inhibitor"}]}, {"smiles": "C[C@@H]1C[C@H]2[C@@H]3CCC4=CC(=O)C=C[C@]4(C)[C@@]3(F)[C@@H](O)C[C@]2(C)[C@@]1(O)C(=O)CO", "note": "[Dexamethasone]", "values": [{"measurement": "IL6 secretions, normalized by number of fibroblasts", "setting": "[3]; D3, anti-inflammatory reference", "result": 25, "unit": "%"}, {"measurement": "IL6 secretions, normalized by number of fibroblasts", "setting": "[3]; D6, compared to the coculture control", "result": 85, "unit": "%"}]}, {"smiles": "CCCCCCCCCCCCOS(=O)(=O)[O-].[Na+]", "note": "[SLS 5%]", "values": [{"measurement": "Classification", "setting": "[4]", "result": "I (Irritant)"}, {"measurement": "% mean cell viability (ds)", "setting": "[4]; tested undiluted", "result": 0.93, "unit": "%"}]}]}
